{"source": "patent US9394327B1", "about": "“Nucleoside crystals, crystal nucleation and growth control with antifreeze proteins” (The Trustees of California State University, priority 2013, dated 2016)", "key": {"[1]": {"assay": "DSC thermodynamic stability analysis of m^5U forms", "type": "physicochemical", "procedure": "Thermodynamic Stability Analysis. Both forms of m^5U were analyzed by DSC (FIG. 20). […] The first endotherm associated with water loss is at 139.07° C., whereas the second endotherm ascribed to the melting is at 185.65° C. […] Form II starts losing water and then melts at relatively lower temperatures than those of form I. The enthalpy profiles for both forms are compared in FIG. 21.\nAll experiments were performed with a DSC 1 (Mettler Toledo, Ohio). An indium standard (Mettler Toledo, Ohio) was used to calibrate the instrument. Samples weighed 3-4 mg and were hermetically encapsulated in standard aluminum sample pans with pierced lids to release any pressure build-up during the experiments. The samples were heated from 25 to 200° C. at a rate of 5° C./min."}, "[2]": {"assay": "Crystallization and crystallization kinetics of m^5U form I and form II from supersaturated solution", "type": "physicochemical", "conditions": "for Day the crystallization completes / Day the crystallization starts: 595 mM m^5U, form I in absence of DAFP-1, form II in presence of DAFP-1 (additive/m^5U 5×10^−6); for Average crystal growth rate: estimated from mass increase of crystals, form I without, form II with DAFP-1; for Crystal morphology of the form: optical micrographs", "procedure": "Supersaturated m^5U aqueous solutions (0.6 M) were made at 30° C. and filtered as soon as possible. Crystals were not grown after the temperature dropped to room temperature for a few days. On day 1, to each sample vial was added 600 μL of 0.6 M m^5U solution, and then 5 μL of water or DAFP solution were added into the vial. The vials were gently swirled after the additions. The resulting m^5U concentration was 595 mM in each vial and additive/m^5U molar ratios (×10^−6) were either 0 or 5. The sample vials were left open in the air at room temperature and three observations at least were recorded per day (every 8 hours) until the solutions in all the vials were dry. The above experiments were repeated five times. Optical micrographs were taken under Nikon SMZ800 microscope with a Nikon Coolpix 5400 when the crystallization completed. Under the above conditions, only form I crystalline m^5U was able to grow in the absence of DAFP-1; however, in the presence of DAFP-1, form II crystalline m^5U was grown exclusively. The kinetics of crystallization of m^5U form I and form II, respectively, was estimated based on the rate of the weight of the occurring crystals and the initial weight of m^5U in the specific vial. All the liquid in the vial was collected gently and the weight of the vial or the vial with crystals was measured. After the measurement, the collected liquid was put back into the vial and the crystallization continued. The weights were measured on an Ohaus Discovery semi-micro analytical balance at 9 am every day until the crystallization finished. The experiments were repeated on three vials and the average values were reported."}, "[3]": {"assay": "Stability of m^5U crystal forms left in air at room temperature", "type": "physicochemical", "description": "The only previously known crystalline form of m^5U is its hemihydrate crystal, designated form I, which was crystallized exclusively by evaporation from the supersaturated aqueous solutions. By using DAFP-1 as an additive, remarkably, we were able to control the crystallization of m^5U and discover a new, less thermodynamically and kinetically preferred form, m^5U dihydrate crystal, designated form II. Forms I and II crystals are readily distinguished from each other by their morphology and stability. Form I crystals are needle-like in appearance (FIG. 16(a)) and there was no change (in the appearance, single crystal X-ray diffraction pattern, or DSC profile) of the crystals after being left in air at room temperature for more than 24 months. Form II crystals are block-shaped (FIG. 16(b)) and became white opaque powders/blocks in 2 months. The resulting solids were not suitable for single-crystal X-ray diffraction."}, "[4]": {"assay": "Crystal growth of C by evaporation of aqueous solution, no seed crystals, with polypeptide additives", "type": "physicochemical", "procedure": "(§1) We obtained the crystals of m^5U, C, and I, respectively, by evaporation of their aqueous solutions at room temperature. m^5U was known to be crystallized from aqueous ethanol solutions. […] On day 1, each sample vial was first added 600 μL of 400 mM m^5U solution. Then 20 μL of water or polypeptide solutions at certain concentrations were added into each vial. The final m^5U concentration was 387 mM in each vial. The additive/m^5U molar ratios (×10^−5) were varied from 0, 0.04, 0.4, 1.0, 1.2, 3.0, 4.0, 7.8, and 9.0. The vials were gently swirled after the addition and were left open in the air at the room temperature. At least three observations were recorded per day (every 8 hours) until the solutions in all the vials were dry. The experiments were repeated five times (Table 1).\n(§2) In previous reports, crystals of C were prepared by evaporating of its aqueous ethanol solutions. Here we obtained C crystals by evaporation of its aqueous solution. […] By slowly evaporating its aqueous solution at 20° C., the pure α-form I crystals were obtained. The experimental procedures for C and I were similar to those described above for m^5U, while the concentrations of C and I solutions were 252 mM and 92 mM, respectively, in each sample vial on day 1 and the additive/C molar ratios (×10^−5) were varied from 0, 0.04, 0.4, 1.0, 1.2, 3.0, 4.0, 7.9, and 10.0 and the additive/I molar ratios (×10^−5) were varied from 0, 0.05, 0.5, 1.1, 2.2, 4.4, 8.1, 10.8, and 21.7. Photos of the vials were taken with a Canon EOS 30D camera during the crystallization process and when the process finished. Optical micrographs were taken under Nikon SMZ800 microscope with a Nikon Coolpix 5400 when the crystallization completed. […]\n(§3) Powder X-ray diffraction (PXRD) data were collected at room temperature on a Rigaku Mini Flex II desktop diffractometer using Cu Kα radiation (30 kV, 15 mA) with a 2θ range of 5°-50°, a step size of 0.010°, and a step time of 2 s. […] The same amount of the resulting powders was then mounted and analyzed on a front loading sample holder."}, "[5]": {"assay": "Crystal growth of m^5U by evaporation of aqueous solution, no seed crystals, with polypeptide additives", "type": "physicochemical", "procedure": "as §1\nAll the resulting solids were sent to X-ray crystallography laboratory at the Beckman Institute of California Institute of Technology for analysis. The qualities of the solids for single crystal X-ray diffraction were determined (Table 1). […] The resolution of the data was improved compared with that of previously reported data of m^5U. The crystallographic data of m^5U have been deposited in the Cambridge Database (CCDC) and the CCDC deposit number is 835399.\nPowder X-ray diffraction (PXRD) data were collected at room temperature on a Rigaku Mini Flex II desktop diffractometer using Cu Kα radiation (30 kV, 15 mA) with a 2θ range of 5°-50°, a step size of 0.010°, and a step time of 2 s. Samples were lightly ground by hand using a mortar and pestle. The same amount of the resulting powders was then mounted and analyzed on a front loading sample holder.\nDifferent amounts of DAFP-1 were added directly to m^5U solution to determine the critical ratio of DAFP-1/m^5U."}, "[6]": {"conditions": "copper sulfate pentahydrate aqueous solution, no additive", "method": "To further test the effect of AFP on different types of compounds, we tested copper sulfate pentahydrate. The crystal grows from copper sulfate pentahydrate aqueous solutions at room temperature. Seventy milligrams of copper sulfate pentahydrate were dissolved in one milliliter of deionized, milli-Q water. The solution was filtered and left in the air for evaporation. In the presence AFPs, the conditions were all the same except DAFP-1 was added to the solution at the molar ratio of 10^−7 to copper sulfate."}, "[7]": {"assay": "Crystal growth of I by evaporation of aqueous solution, no seed crystals, with polypeptide additives", "type": "physicochemical", "procedure": "as §1, §2, §3"}, "[8]": {"assay": "Crystallization of trehalose dihydrate by diffusing ethanol, with DAFP-1", "type": "physicochemical", "conditions": "without additive", "description": "Similarly, we crystallized trehalose dihydrate crystals by diffusing ethanol into the aqueous ethanol solution of trehalose directly. The protein:trehalose molar ratio (×10^−5) was 9.0 in FIG. 24(b) The crystals formed in the presence of DAFP-1 show a dramatic decrease in size as compared to the crystals obtained without additive."}, "[9]": {"conditions": "optical micrographs, no seed crystals, alone or in the presence of the named additive"}}}
{"compound": "Cc1cn([C@@H]2O[C@H](CO)[C@@H](O)[C@H]2O)c(=O)[nH]c1=O", "note": "[form I, 5-methyluridine]", "values": [{"measurement": "Relative thermodynamic stability of the forms", "setting": "[1]; DSC enthalpy profiles", "result": "more thermodynamically stable"}, {"measurement": "DSC endotherm associated with water loss", "setting": "[1]; heated 25 to 200° C. at 5° C./min", "result": 139.07, "unit": "°C"}, {"measurement": "Day the crystallization completes", "setting": "[2]", "result": 9, "unit": "days"}, {"measurement": "Day the crystallization starts", "setting": "[2]", "result": 3, "unit": "days"}, {"measurement": "Average crystal growth rate", "setting": "[2]", "result": 13.3, "unit": "% per day"}, {"measurement": "Crystal morphology of the form", "setting": "[2]", "result": "needle-like"}, {"measurement": "Time crystals were stable in air", "setting": "[3]; in air", "result": "at least 2 years"}, {"measurement": "Time without change (appearance, single crystal X-ray diffraction pattern, DSC profile) of the crystals", "setting": "[3]; left in air at room temperature", "result": "more than 24 months"}]}
{"compound": "Nc1ccn([C@@H]2O[C@H](CO)[C@@H](O)[C@H]2O)c(=O)n1", "note": "[C, cytidine]", "values": [{"measurement": "Crystal quality (suitableness of resulting solids for single crystal x-ray diffraction)", "setting": "[4]; 252 mM C, polypeptide 0 μM", "result": "Yes"}, {"measurement": "Induction time (day of first appearance of solid)", "setting": "[4]; 252 mM C, polypeptide 0 μM, no seed crystals", "result": 13, "unit": "days"}, {"measurement": "Morphology of final achieved C solids", "setting": "[4]; [9]", "result": "needle-like"}]}
{"compound": "Cc1cn([C@@H]2O[C@H](CO)[C@@H](O)[C@H]2O)c(=O)[nH]c1=O", "note": "[m^5U, 5-methyluridine]", "values": [{"measurement": "Crystal quality (suitableness of resulting solids for single crystal x-ray diffraction)", "setting": "[5]; 387 mM m^5U, polypeptide 0 μM", "result": "Yes"}, {"measurement": "Induction time (day of first appearance of solid)", "setting": "[5]; 387 mM m^5U, polypeptide 0 μM, no seed crystals", "result": 6, "unit": "days"}, {"measurement": "Morphology of finally achieved m^5U solids", "setting": "[5]; [9]", "result": "Needle-like orthorhombic"}]}
{"compound": "O.O.O.O.O.O=S(=O)([O-])[O-].[Cu+2]", "note": "[copper sulfate pentahydrate]", "values": [{"measurement": "Appearance of the crystal (time)", "setting": "[6]", "result": 7, "unit": "days"}]}
{"compound": "O=c1[nH]cnc2c1ncn2[C@@H]1O[C@H](CO)[C@@H](O)[C@H]1O", "note": "[I, inosine]", "values": [{"measurement": "Crystal quality (suitableness of resulting solids for single crystal x-ray diffraction)", "setting": "[7]; 92 mM I, polypeptide 0 μM", "result": "Yes"}, {"measurement": "Induction time (day of first appearance of solid)", "setting": "[7]; 92 mM I, polypeptide 0 μM, no seed crystals", "result": 5, "unit": "days"}, {"measurement": "Morphology of final achieved I solids", "setting": "[7]; [9]", "result": "hair-like"}]}
{"compound": "Cc1cn([C@@H]2O[C@H](CO)[C@@H](O)[C@H]2O)c(=O)[nH]c1=O", "note": "[form II, 5-methyluridine]", "values": [{"measurement": "Day the crystallization completes", "setting": "[2]", "result": 15, "unit": "days"}, {"measurement": "Day the crystallization starts", "setting": "[2]", "result": 6, "unit": "days"}, {"measurement": "Average crystal growth rate", "setting": "[2]", "result": 10.5, "unit": "% per day"}, {"measurement": "Crystal morphology of the form", "setting": "[2]", "result": "block-shaped"}, {"measurement": "Time until crystals became white opaque powders/blocks", "setting": "[3]; in air at room temperature", "result": 2, "unit": "months"}]}
{"compound": "OC[C@H]1O[C@H](O[C@H]2O[C@H](CO)[C@@H](O)[C@H](O)[C@H]2O)[C@H](O)[C@@H](O)[C@@H]1O", "note": "[trehalose dihydrate]", "values": [{"measurement": "Size of trehalose dihydrate crystals", "setting": "[8]", "result": "1-1.5 mm"}]}
